Test results as given in the NIST ThermoML archive (doi:10.1016/j.tca.2018.07.026).
Numbers after ± are expanded uncertainties.

Columns and labels:
[1] = Crystal, Transpiration method
[2] = molar heat capacity at constant pressure; details: 101.33 kPa, Crystal, DSC

## N#Cc1ccc2ccccc2c1 [2-naphthalenecarbonitrile]
[1]; 315.5 K
  vapor or sublimation pressure: 0.00091 ± 5e-05 kPa
[1]; 318.4 K
  vapor or sublimation pressure: 0.00122 ± 6e-05 kPa
[1]; 320.5 K
  vapor or sublimation pressure: 0.00152 ± 8e-05 kPa
[1]; 322.4 K
  vapor or sublimation pressure: 0.00195 ± 0.0001 kPa
[1]; 324.5 K
  vapor or sublimation pressure: 0.00237 ± 0.00011 kPa
[1]; 326.4 K
  vapor or sublimation pressure: 0.00284 ± 0.00014 kPa
[1]; 328.2 K
  vapor or sublimation pressure: 0.0035 ± 0.0002 kPa
[1]; 331.3 K
  vapor or sublimation pressure: 0.00463 ± 0.00022 kPa
[1]; 333.2 K
  vapor or sublimation pressure: 0.00579 ± 0.00029 kPa
[1]; 334.2 K
  vapor or sublimation pressure: 0.00641 ± 0.00032 kPa
[2]; 313.8 K
  molar heat capacity at constant pressure: 182.1 ± 37 J/K/mol
[2]; 314.4 K
  molar heat capacity at constant pressure: 182.8 ± 37 J/K/mol
[2]; 314.9 K
  molar heat capacity at constant pressure: 183.3 ± 37 J/K/mol
[2]; 315.3 K
  molar heat capacity at constant pressure: 183.7 ± 37 J/K/mol
[2]; 315.8 K
  molar heat capacity at constant pressure: 184.2 ± 37 J/K/mol
[2]; 316.3 K
  molar heat capacity at constant pressure: 184.6 ± 38 J/K/mol
[2]; 316.8 K
  molar heat capacity at constant pressure: 185 ± 38 J/K/mol
[2]; 317.3 K
  molar heat capacity at constant pressure: 185.3 ± 38 J/K/mol
[2]; 317.8 K
  molar heat capacity at constant pressure: 185.4 ± 38 J/K/mol
[2]; 318.2 K
  molar heat capacity at constant pressure: 185.5 ± 38 J/K/mol
[2]; 318.7 K
  molar heat capacity at constant pressure: 185.9 ± 38 J/K/mol
[2]; 319.2 K
  molar heat capacity at constant pressure: 186.1 ± 38 J/K/mol
[2]; 319.6 K
  molar heat capacity at constant pressure: 186.3 ± 38 J/K/mol
[2]; 320.1 K
  molar heat capacity at constant pressure: 186.6 ± 38 J/K/mol
[2]; 320.5 K
  molar heat capacity at constant pressure: 186.8 ± 38 J/K/mol
[2]; 320.9 K
  molar heat capacity at constant pressure: 187.1 ± 38 J/K/mol
[2]; 321.4 K
  molar heat capacity at constant pressure: 187.4 ± 38 J/K/mol
[2]; 321.8 K
  molar heat capacity at constant pressure: 187.5 ± 38 J/K/mol
[2]; 322.2 K
  molar heat capacity at constant pressure: 187.8 ± 38 J/K/mol
[2]; 322.7 K
  molar heat capacity at constant pressure: 188.1 ± 38 J/K/mol
[2]; 323.1 K
  molar heat capacity at constant pressure: 188.4 ± 38 J/K/mol
[2]; 323.5 K
  molar heat capacity at constant pressure: 188.6 ± 38 J/K/mol
[2]; 323.9 K
  molar heat capacity at constant pressure: 188.9 ± 38 J/K/mol
[2]; 324.4 K
  molar heat capacity at constant pressure: 189.1 ± 38 J/K/mol
[2]; 324.8 K
  molar heat capacity at constant pressure: 189.5 ± 38 J/K/mol
[2]; 325.2 K
  molar heat capacity at constant pressure: 189.8 ± 38 J/K/mol
[2]; 325.6 K
  molar heat capacity at constant pressure: 190.2 ± 39 J/K/mol
[2]; 326 K
  molar heat capacity at constant pressure: 190.7 ± 39 J/K/mol
[2]; 326.4 K
  molar heat capacity at constant pressure: 191.2 ± 39 J/K/mol
[2]; 326.8 K
  molar heat capacity at constant pressure: 191.5 ± 39 J/K/mol
[2]; 327.1 K
  molar heat capacity at constant pressure: 191.8 ± 39 J/K/mol

## O=C(O)c1ccccc1 [benzoic acid]
[2]; 318.8 K
  molar heat capacity at constant pressure: 122.9 ± 25 J/K/mol
[2]; 319.2 K
  molar heat capacity at constant pressure: 127.1 ± 26 J/K/mol
[2]; 319.7 K
  molar heat capacity at constant pressure: 130.8 ± 27 J/K/mol
[2]; 320.1 K
  molar heat capacity at constant pressure: 134.3 ± 27 J/K/mol
[2]; 320.6 K
  molar heat capacity at constant pressure: 137.7 ± 28 J/K/mol
[2]; 321 K
  molar heat capacity at constant pressure: 140.7 ± 29 J/K/mol
[2]; 321.4 K
  molar heat capacity at constant pressure: 143.4 ± 29 J/K/mol
[2]; 321.9 K
  molar heat capacity at constant pressure: 146.1 ± 30 J/K/mol
[2]; 322.3 K
  molar heat capacity at constant pressure: 148.4 ± 30 J/K/mol
[2]; 322.7 K
  molar heat capacity at constant pressure: 150.5 ± 31 J/K/mol
[2]; 323.1 K
  molar heat capacity at constant pressure: 152.4 ± 31 J/K/mol
[2]; 323.5 K
  molar heat capacity at constant pressure: 154.1 ± 31 J/K/mol
[2]; 324 K
  molar heat capacity at constant pressure: 155.6 ± 32 J/K/mol
[2]; 324.4 K
  molar heat capacity at constant pressure: 157 ± 32 J/K/mol
[2]; 324.8 K
  molar heat capacity at constant pressure: 158.3 ± 32 J/K/mol
[2]; 325.2 K
  molar heat capacity at constant pressure: 159.5 ± 32 J/K/mol
[2]; 325.6 K
  molar heat capacity at constant pressure: 160.4 ± 33 J/K/mol
[2]; 326 K
  molar heat capacity at constant pressure: 161.3 ± 33 J/K/mol
[2]; 326.4 K
  molar heat capacity at constant pressure: 162 ± 33 J/K/mol
[2]; 326.8 K
  molar heat capacity at constant pressure: 162.7 ± 33 J/K/mol
[2]; 327.2 K
  molar heat capacity at constant pressure: 163.4 ± 33 J/K/mol
[2]; 327.6 K
  molar heat capacity at constant pressure: 163.9 ± 33 J/K/mol
[2]; 328 K
  molar heat capacity at constant pressure: 164.3 ± 33 J/K/mol
[2]; 328.3 K
  molar heat capacity at constant pressure: 164.8 ± 34 J/K/mol
[2]; 328.7 K
  molar heat capacity at constant pressure: 165.1 ± 34 J/K/mol
[2]; 329.1 K
  molar heat capacity at constant pressure: 165.3 ± 34 J/K/mol
[2]; 329.5 K
  molar heat capacity at constant pressure: 165.6 ± 34 J/K/mol
[2]; 329.9 K
  molar heat capacity at constant pressure: 165.7 ± 34 J/K/mol
[2]; 330.3 K
  molar heat capacity at constant pressure: 165.9 ± 34 J/K/mol
[2]; 330.6 K
  molar heat capacity at constant pressure: 166 ± 34 J/K/mol
[2]; 331 K
  molar heat capacity at constant pressure: 166.3 ± 34 J/K/mol
[2]; 331.4 K
  molar heat capacity at constant pressure: 166.3 ± 34 J/K/mol
[2]; 331.8 K
  molar heat capacity at constant pressure: 166.4 ± 34 J/K/mol
[2]; 332.1 K
  molar heat capacity at constant pressure: 166.4 ± 34 J/K/mol
[2]; 332.5 K
  molar heat capacity at constant pressure: 166.4 ± 34 J/K/mol
[2]; 332.9 K
  molar heat capacity at constant pressure: 166.5 ± 34 J/K/mol
[2]; 333.3 K
  molar heat capacity at constant pressure: 166.5 ± 34 J/K/mol
[2]; 333.6 K
  molar heat capacity at constant pressure: 166.5 ± 34 J/K/mol
[2]; 334 K
  molar heat capacity at constant pressure: 166.6 ± 34 J/K/mol
[2]; 334.4 K
  molar heat capacity at constant pressure: 166.6 ± 34 J/K/mol
[2]; 334.8 K
  molar heat capacity at constant pressure: 166.5 ± 34 J/K/mol
[2]; 335.1 K
  molar heat capacity at constant pressure: 166.6 ± 34 J/K/mol
[2]; 335.5 K
  molar heat capacity at constant pressure: 166.7 ± 34 J/K/mol
[2]; 335.9 K
  molar heat capacity at constant pressure: 166.7 ± 34 J/K/mol
[2]; 336.2 K
  molar heat capacity at constant pressure: 166.7 ± 34 J/K/mol
[2]; 336.6 K
  molar heat capacity at constant pressure: 166.7 ± 34 J/K/mol
[2]; 337 K
  molar heat capacity at constant pressure: 166.7 ± 34 J/K/mol
[2]; 337.3 K
  molar heat capacity at constant pressure: 166.7 ± 34 J/K/mol
[2]; 337.7 K
  molar heat capacity at constant pressure: 166.9 ± 34 J/K/mol
[2]; 338.1 K
  molar heat capacity at constant pressure: 166.9 ± 34 J/K/mol
[2]; 338.5 K
  molar heat capacity at constant pressure: 167 ± 34 J/K/mol
[2]; 338.8 K
  molar heat capacity at constant pressure: 167.1 ± 34 J/K/mol
[2]; 339.2 K
  molar heat capacity at constant pressure: 167.2 ± 34 J/K/mol
[2]; 339.6 K
  molar heat capacity at constant pressure: 167.3 ± 34 J/K/mol
[2]; 339.9 K
  molar heat capacity at constant pressure: 167.4 ± 34 J/K/mol
[2]; 340.3 K
  molar heat capacity at constant pressure: 167.5 ± 34 J/K/mol
[2]; 340.7 K
  molar heat capacity at constant pressure: 167.6 ± 34 J/K/mol
[2]; 341 K
  molar heat capacity at constant pressure: 167.7 ± 34 J/K/mol
[2]; 341.4 K
  molar heat capacity at constant pressure: 167.8 ± 34 J/K/mol
[2]; 341.8 K
  molar heat capacity at constant pressure: 167.9 ± 34 J/K/mol
[2]; 342 K
  molar heat capacity at constant pressure: 168 ± 34 J/K/mol

## c1ccc2ccccc2c1 [naphthalene]
[1]; 288.2 K
  vapor or sublimation pressure: 0.00418 ± 0.00021 kPa
[1]; 290.7 K
  vapor or sublimation pressure: 0.00548 ± 0.00028 kPa
[1]; 293.2 K
  vapor or sublimation pressure: 0.00698 ± 0.00035 kPa
[1]; 298.2 K
  vapor or sublimation pressure: 0.01114 ± 0.00054 kPa
[1]; 303.2 K
  vapor or sublimation pressure: 0.01811 ± 0.00088 kPa
[1]; 308 K
  vapor or sublimation pressure: 0.02903 ± 0.0014 kPa
[1]; 313.1 K
  vapor or sublimation pressure: 0.04408 ± 0.0021 kPa
[1]; 318.2 K
  vapor or sublimation pressure: 0.0671 ± 0.0031 kPa
[1]; 323.1 K
  vapor or sublimation pressure: 0.102 ± 0.0048 kPa
[1]; 328.1 K
  vapor or sublimation pressure: 0.1538 ± 0.007 kPa
[1]; 330.5 K
  vapor or sublimation pressure: 0.1867 ± 0.0086 kPa
[1]; 333 K
  vapor or sublimation pressure: 0.2235 ± 0.01 kPa
